Laboratory results taken from PubChem BioAssay (NCI).
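1) Cells in 96-well plates. 2) Compound, 48 h, 5 concentrations. 3) Linear interpolation between surrounding doses. 4) Unreached endpoint = highest concentration. Abbreviation: GI50, concentration required for 50% inhibition of growth. TGI is the concentration that stops growth completely.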

How the values were obtained:
Assay in all cases: NCI tumour cell line growth inhibition, 48 h
SF-268 CNS = test system: SF-268 CNS
BT-549 breast = test system: BT-549 breast
HCC-2998 colon = test system: HCC-2998 colon
SNB-75 CNS = test system: SNB-75 CNS
HOP-62 NSCLC = test system: HOP-62 NSCLC
A498 renal = test system: A498 renal
SK-MEL-2 melanoma = test system: SK-MEL-2 melanoma
CCRF-CEM leukemia = test system: CCRF-CEM leukemia
OVCAR-5 ovarian = test system: OVCAR-5 ovarian
MDA-MB-231 breast = test system: MDA-MB-231 breast
COLO 205 colon = test system: COLO 205 colon
MCF7 breast = test system: MCF7 breast
RPMI-8226 leukemia = test system: RPMI-8226 leukemia
UO-31 renal = test system: UO-31 renal
SK-OV-3 ovarian = test system: SK-OV-3 ovarian
DU-145 prostate = test system: DU-145 prostate
U251 CNS = test system: U251 CNS
OVCAR-8 ovarian = test system: OVCAR-8 ovarian
SF-539 CNS = test system: SF-539 CNS
HS 578T breast = test system: HS 578T breast
NCI-H226 lung = test system: NCI-H226 lung
UACC-62 melanoma = test system: UACC-62 melanoma
M14 melanoma = test system: M14 melanoma
A549 NSCLC = test system: A549 NSCLC
NCI-H522 lung = test system: NCI-H522 lung
SNB-19 CNS = test system: SNB-19 CNS
MDA-MB-435 = test system: MDA-MB-435
ACHN renal = test system: ACHN renal
OVCAR-4 ovarian = test system: OVCAR-4 ovarian
KM12 colon = test system: KM12 colon
K-562 leukemia = test system: K-562 leukemia
RXF 393 renal = test system: RXF 393 renal
SN12C renal = test system: SN12C renal
HCT-116 colon = test system: HCT-116 colon
786-0 renal = test system: 786-0 renal
CAKI-1 renal = test system: CAKI-1 renal
PC-3 prostate = test system: PC-3 prostate
NCI-H460 lung = test system: NCI-H460 lung
SW-620 colon = test system: SW-620 colon
HT29 colon = test system: HT29 colon
SK-MEL-5 melanoma = test system: SK-MEL-5 melanoma
HL-60(TB) leukemia = test system: HL-60(TB) leukemia
HCT-15 colon = test system: HCT-15 colon
NCI/ADR-RES ovarian = test system: NCI/ADR-RES ovarian
IGROV1 ovarian = test system: IGROV1 ovarian
MOLT-4 leukemia = test system: MOLT-4 leukemia
OVCAR-3 ovarian = test system: OVCAR-3 ovarian
SK-MEL-28 melanoma = test system: SK-MEL-28 melanoma
LOX IMVI melanoma = test system: LOX IMVI melanoma
UACC-257 melanoma = test system: UACC-257 melanoma
SR leukemia = test system: SR leukemia
SF-295 CNS = test system: SF-295 CNS

SMILES: C[n+]1c(/C=C/c2c[nH]c3ccccc23)ccc2ccccc21
- GI50 (SF-268 CNS): 10.4 µM
- TGI (SF-268 CNS): 24.2 µM
- GI50 (BT-549 breast): 18.6 µM
- TGI (BT-549 breast): 34.2 µM
- GI50 (HCC-2998 colon): 10.5 µM
- TGI (HCC-2998 colon): 23.8 µM
- GI50 (SNB-75 CNS): 14.1 µM
- TGI (SNB-75 CNS): 27.4 µM
- GI50 (HOP-62 NSCLC): 12.8 µM
- TGI (HOP-62 NSCLC): 31.8 µM
- GI50 (A498 renal): 2.8 µM
- TGI (A498 renal): 18.1 µM
- GI50 (SK-MEL-2 melanoma): 16.1 µM
- TGI (SK-MEL-2 melanoma): 30.6 µM
- GI50 (CCRF-CEM leukemia): 5.59 µM
- TGI (CCRF-CEM leukemia): 45 µM
- GI50 (OVCAR-5 ovarian): 18 µM
- TGI (OVCAR-5 ovarian): 59.1 µM
- GI50 (MDA-MB-231 breast): 10.5 µM
- TGI (MDA-MB-231 breast): 23 µM
- GI50 (COLO 205 colon): 5.44 µM
- TGI (COLO 205 colon): 22.2 µM
- GI50 (MCF7 breast): 2.16 µM
- TGI (MCF7 breast): 34.1 µM
- GI50 (RPMI-8226 leukemia): 5.63 µM
- TGI (RPMI-8226 leukemia): 28.2 µM
- GI50 (UO-31 renal): 11.3 µM
- TGI (UO-31 renal): 30.4 µM
- GI50 (SK-OV-3 ovarian): 14.7 µM
- TGI (SK-OV-3 ovarian): 90.8 µM
- GI50 (DU-145 prostate): 10.1 µM
- TGI (DU-145 prostate): 22.7 µM
- GI50 (U251 CNS): 8.75 µM
- TGI (U251 CNS): 22.5 µM
- GI50 (OVCAR-8 ovarian): 4.24 µM
- TGI (OVCAR-8 ovarian): 28.9 µM
- GI50 (SF-539 CNS): 12.7 µM
- TGI (SF-539 CNS): 27.3 µM
- GI50 (HS 578T breast): 13.2 µM
- TGI (HS 578T breast): 33.3 µM
- GI50 (NCI-H226 lung): 11 µM
- TGI (NCI-H226 lung): 29.1 µM
- GI50 (UACC-62 melanoma): 7.31 µM
- TGI (UACC-62 melanoma): 21.1 µM
- GI50 (M14 melanoma): 14 µM
- TGI (M14 melanoma): 33.2 µM
- GI50 (A549 NSCLC): 5.38 µM
- TGI (A549 NSCLC): 26 µM
- GI50 (NCI-H522 lung): 11.8 µM
- TGI (NCI-H522 lung): 25.9 µM
- GI50 (SNB-19 CNS): 11.3 µM
- TGI (SNB-19 CNS): 35.1 µM
- GI50 (MDA-MB-435): 7.95 µM
- TGI (MDA-MB-435): 20.6 µM
- GI50 (ACHN renal): 10.1 µM
- TGI (ACHN renal): 47.8 µM
- GI50 (OVCAR-4 ovarian): 7.07 µM
- TGI (OVCAR-4 ovarian): 37.1 µM
- GI50 (KM12 colon): 4.61 µM
- TGI (KM12 colon): 22.3 µM
- GI50 (K-562 leukemia): 2.32 µM
- TGI (K-562 leukemia): 18.1 µM
- GI50 (RXF 393 renal): 13.9 µM
- TGI (RXF 393 renal): 27.9 µM
- GI50 (SN12C renal): 5.68 µM
- TGI (SN12C renal): 21 µM
- GI50 (HCT-116 colon): 4.65 µM
- TGI (HCT-116 colon): 22.5 µM
- GI50 (786-0 renal): 14.2 µM
- TGI (786-0 renal): 30.3 µM
- GI50 (CAKI-1 renal): 14.6 µM
- TGI (CAKI-1 renal): 34.9 µM
- GI50 (PC-3 prostate): 9.74 µM
- TGI (PC-3 prostate): 25.8 µM
- GI50 (NCI-H460 lung): 3.14 µM
- TGI (NCI-H460 lung): 12.9 µM
- GI50 (SW-620 colon): 4 µM
- TGI (SW-620 colon): 19.4 µM
- GI50 (HT29 colon): 5.06 µM
- TGI (HT29 colon): 27.5 µM
- GI50 (SK-MEL-5 melanoma): 6.15 µM
- TGI (SK-MEL-5 melanoma): 19.6 µM
- GI50 (HL-60(TB) leukemia): 12.8 µM
- TGI (HL-60(TB) leukemia): 30.1 µM
- GI50 (HCT-15 colon): 18 µM
- TGI (HCT-15 colon): 53.4 µM
- GI50 (NCI/ADR-RES ovarian): > 100 µM
- TGI (NCI/ADR-RES ovarian): > 100 µM
- GI50 (IGROV1 ovarian): 11 µM
- TGI (IGROV1 ovarian): 39.4 µM
- GI50 (MOLT-4 leukemia): 4.03 µM
- TGI (MOLT-4 leukemia): 15.5 µM
- GI50 (OVCAR-3 ovarian): 7.07 µM
- TGI (OVCAR-3 ovarian): 26.7 µM
- GI50 (SK-MEL-28 melanoma): 13.8 µM
- TGI (SK-MEL-28 melanoma): 27.3 µM
- GI50 (LOX IMVI melanoma): 11 µM
- TGI (LOX IMVI melanoma): 23.1 µM
- GI50 (UACC-257 melanoma): 12.2 µM
- TGI (UACC-257 melanoma): 25.2 µM
- GI50 (SR leukemia): 5.84 µM
- TGI (SR leukemia): 30 µM
- GI50 (SF-295 CNS): 6.93 µM
- TGI (SF-295 CNS): 20.5 µM
